Reference: ChEMBL document CHEMBL4418498, “Halogenated benzotropolones as atg4b inhibitors” (2018)

Tests used:
[1] = Metabolic stability in mouse liver microsomes assessed as parent compound recovery after 30 mins in presence of NADPH regenerating system by LC-MS/MS analysis; type: ADME, Microsome; conditions: read-out: Drug recovery
[2] = molecular target: T1, Cysteine protease ATG4B (Homo sapiens) (UniProt Q9Y4P1); experiment: Inhibition of Atg4B in human Jurkat T-cells assessed as reduction in everolimus-induced autophagy at […] incubated for 16 hrs by CYTO-ID-based phenotypical screening assay relative to control everolimus alone (reference value: 1 No unit); type: cell-based
T1 sequence (whole entry): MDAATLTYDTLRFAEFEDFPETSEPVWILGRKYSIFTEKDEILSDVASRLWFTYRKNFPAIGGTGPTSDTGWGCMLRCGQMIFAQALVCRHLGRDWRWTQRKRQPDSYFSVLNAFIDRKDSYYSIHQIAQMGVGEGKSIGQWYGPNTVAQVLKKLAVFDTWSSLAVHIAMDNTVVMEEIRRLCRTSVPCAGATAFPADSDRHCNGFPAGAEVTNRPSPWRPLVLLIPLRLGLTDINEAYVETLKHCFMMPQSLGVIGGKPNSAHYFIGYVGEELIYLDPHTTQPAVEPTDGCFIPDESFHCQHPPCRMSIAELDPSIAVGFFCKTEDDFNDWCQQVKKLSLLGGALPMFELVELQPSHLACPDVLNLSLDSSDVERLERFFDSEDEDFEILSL

remaining at 0.5 h [1] | Ratio [2] | Compound
100% | – | O=C(O)c1cc(O)c(=O)c2c(O)c(O)c(Br)cc2c1
– | 0.57 | Cn1cnc(N)c2ncnc1-2
